{
  "source": "patent US11081236B2",
  "about": "“Diagnostic and therapeutic methods for the treatment of breast cancer” (GENENTECH, INC., priority 2018, dated 2021)",
  "tested_on": "panel of 14 ER+/HER2− breast cancer cell lines",
  "test": "8-day in vitro viability assay, GR (Growth Rate) method",
  "type": "cell-based",
  "details": "300 nM",
  "procedure": "The relationship between ER pathway activity and the anti-proliferative effect of the ER antagonist fulvestrant was explored in a panel of 14 ER+/HER2− breast cancer cell lines. RNA-sequencing data was leveraged to determine the E2-induced score, determined by expression of a set of E2-induced genes (as described above), of a series of ER+/HER2− breast cancer cell lines grown under standard culture conditions, in the presence of estrogen. The effect of ER inhibition by 300 nM fulvestrant on cellular proliferation was determined in an 8-day in vitro viability assay using the GR (Growth Rate) method described by Hafner et al. (Nat Methods 13:6, 2016). The E2-induced score was then plotted against the effect of fulvestrant on cellular growth rate.",
  "data": [
    {"smiles": "C[C@]12CC[C@@H]3c4ccc(O)cc4C[C@@H](CCCCCCCCC[S+]([O-])CCCC(F)(F)C(F)(F)F)[C@H]3[C@@H]1CC[C@@H]2O", "note": "(some centres unmarked) [Fulvestrant, fulvestrant]", "values": [
      {"measurement": "impact on growth rate", "setting": "cell lines exhibiting higher E2-induced scores", "value": "considerably greater impact"},
      {"measurement": "impact on growth rate", "setting": "cell lines with E2-induced scores in the lowest 25th percentile (ZR-75-1, MDA-MB-415, MDA-MB-175-VII, KPL-1)", "value": "little impact"}
    ]}
  ]
}
